According to publication PMC3816736 (Biochemical pharmacology, 2013):

Assays:
xanthine oxidase (XO) [1] = target: T1, xanthine oxidase (XO) (Bos taurus, UniProt P80457); assay: spectrophotometric uric acid formation at […] nm, […] compound; format: biochemical
xanthine oxidase (XO) [2] = target: T1, xanthine oxidase (XO); assay: spectrophotometric uric acid formation at […] nm; format: biochemical

T1 sequence (P80457 2-1332): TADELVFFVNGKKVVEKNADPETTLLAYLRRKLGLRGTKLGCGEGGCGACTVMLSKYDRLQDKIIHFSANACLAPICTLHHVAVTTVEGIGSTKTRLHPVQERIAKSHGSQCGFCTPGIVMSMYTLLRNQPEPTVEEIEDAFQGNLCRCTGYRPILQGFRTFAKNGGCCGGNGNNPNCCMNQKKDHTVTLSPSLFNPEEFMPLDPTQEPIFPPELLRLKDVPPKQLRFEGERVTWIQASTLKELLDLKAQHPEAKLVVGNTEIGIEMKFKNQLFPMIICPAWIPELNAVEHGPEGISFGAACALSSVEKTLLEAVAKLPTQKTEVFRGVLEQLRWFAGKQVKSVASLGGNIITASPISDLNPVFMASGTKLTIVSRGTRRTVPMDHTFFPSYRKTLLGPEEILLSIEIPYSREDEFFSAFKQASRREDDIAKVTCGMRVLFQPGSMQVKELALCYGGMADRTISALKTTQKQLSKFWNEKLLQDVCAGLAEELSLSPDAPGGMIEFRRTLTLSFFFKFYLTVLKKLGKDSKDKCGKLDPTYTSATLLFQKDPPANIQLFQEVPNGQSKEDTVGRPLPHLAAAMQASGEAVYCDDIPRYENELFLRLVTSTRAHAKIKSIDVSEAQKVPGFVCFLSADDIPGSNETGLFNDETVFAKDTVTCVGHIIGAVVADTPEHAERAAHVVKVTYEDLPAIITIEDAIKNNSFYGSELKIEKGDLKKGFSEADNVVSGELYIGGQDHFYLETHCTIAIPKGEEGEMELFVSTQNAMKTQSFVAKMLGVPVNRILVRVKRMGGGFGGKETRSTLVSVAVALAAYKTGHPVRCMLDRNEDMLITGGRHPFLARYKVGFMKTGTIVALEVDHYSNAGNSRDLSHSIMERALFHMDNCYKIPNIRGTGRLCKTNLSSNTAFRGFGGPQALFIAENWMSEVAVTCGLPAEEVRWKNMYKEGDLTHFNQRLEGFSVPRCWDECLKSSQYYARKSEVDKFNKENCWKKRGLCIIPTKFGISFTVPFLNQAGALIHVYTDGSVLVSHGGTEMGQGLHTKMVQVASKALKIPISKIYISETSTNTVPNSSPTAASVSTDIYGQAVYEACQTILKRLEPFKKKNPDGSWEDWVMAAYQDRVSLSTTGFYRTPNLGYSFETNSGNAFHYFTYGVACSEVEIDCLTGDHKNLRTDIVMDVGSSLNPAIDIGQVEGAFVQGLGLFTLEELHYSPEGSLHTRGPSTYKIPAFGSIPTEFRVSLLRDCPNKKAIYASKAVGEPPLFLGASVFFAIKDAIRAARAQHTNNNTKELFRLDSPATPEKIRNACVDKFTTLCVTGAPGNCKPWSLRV

SMILES	spectrophotometric uric acid formation at 295 nm, 20 μM compound (xanthine oxidase (XO) [1])	IC50 (xanthine oxidase (XO) [2]) [µM]
O=Cc1ccc(O)c(O)c1 [DHB-CHO, 3,4-dihydroxybenzaldehyde]	−CHO group such as DHNB, DH6NB, DHB-CHO and THB-CHO had an inhibitory effect on XO	
OCc1ccc(O)c(O)c1 [DHBA, 3,4-dihydroxybenzyl alcohol]		76
O=Cc1cc(O)c(O)c(O)c1 [THB-CHO, 3,4,5-trihydroxybenzaldehyde]		> 80
